Measurements reported in PubChem BioAssay (NCI).
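Grown in 96-well plates, cells were treated for 48 hours with each compound at five concentrations. Insufficient inhibition: endpoint recorded as highest concentration tested. At the GI50, growth is halved. TGI: total growth inhibition.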

Columns and labels:
Assay in all cases: NCI tumour cell line growth inhibition, 48 h
SF-268 CNS = test system: SF-268 CNS
MDA-MB-231 breast = test system: MDA-MB-231 breast
IGROV1 ovarian = test system: IGROV1 ovarian
HS 578T breast = test system: HS 578T breast
OVCAR-3 ovarian = test system: OVCAR-3 ovarian
LOX IMVI melanoma = test system: LOX IMVI melanoma
CCRF-CEM leukemia = test system: CCRF-CEM leukemia
A498 renal = test system: A498 renal
SF-295 CNS = test system: SF-295 CNS
NCI-H522 lung = test system: NCI-H522 lung

| Compound | GI50 (SF-268 CNS) [µM] | TGI (SF-268 CNS) [µM] | GI50 (MDA-MB-231 breast) [µM] | TGI (MDA-MB-231 breast) [µM] | GI50 (IGROV1 ovarian) [µM] | TGI (IGROV1 ovarian) [µM] | GI50 (HS 578T breast) [µM] | TGI (HS 578T breast) [µM] | GI50 (OVCAR-3 ovarian) [µM] | TGI (OVCAR-3 ovarian) [µM] | GI50 (LOX IMVI melanoma) [µM] | TGI (LOX IMVI melanoma) [µM] | GI50 (CCRF-CEM leukemia) [µM] | TGI (CCRF-CEM leukemia) [µM] | GI50 (A498 renal) [µM] | TGI (A498 renal) [µM] | GI50 (SF-295 CNS) [µM] | TGI (SF-295 CNS) [µM] | GI50 (NCI-H522 lung) [µM] | TGI (NCI-H522 lung) [µM] |
| --- | --- | --- | --- | --- | --- | --- | --- | --- | --- | --- | --- | --- | --- | --- | --- | --- | --- | --- | --- | --- |
| COc1ccc(-c2cc3c4c(nc5ccccc5c4c2)CC(c2cc(OC)c(OC)c(OC)c2)O3)cc1 (stereo not given) | 1.72 | 5.48 | 2.15 | 7.16 | 2.66 | 12.6 | 1.24 | 6.81 | 1.86 | 4.28 | 1.92 | 6.81 | > 100 | > 100 | 3.39 | 13.4 | 3.5 | 12.5 | 2.63 | 13.9 |
| Cc1cc(N(CCCl)CCCl)ccc1C=Nc1cccnc1 | 11.3 | > 100 | 67.6 | > 100 | 4.97 | > 84.1 | 37.7 | > 100 | 5.33 | 31.7 | 12.7 | > 100 | 6.75 | > 100 | 0.237 | 0.833 | 8.68 | > 95.7 | 14.3 | 38.1 |
| CCOc1ccc(NC(=O)Nc2cc(C(C)C)ccc2C)cc1 | 4.36 | 14.7 | 3.79 | 15.8 | 6.37 | 15.7 | 2.32 | 7.06 | 5.33 | 13.6 | 8.9 | > 100 | > 25.5 | > 100 | 3.65 | 18.6 | 7.45 | 25.4 | 9.53 | 78.3 |
